# Assay results reported in US8815909B2, “Diaminocyclohexane compounds and uses thereof” (Bristol-Myers Squibb Company, priority 2011, dated 2014).
# Structures can show the parent of a compound that is named as a salt. Where two headings read alike, the source gives them in different places.
# Target: T1, human Y4 receptor (Homo sapiens, UniProt P50391)
# T1 construct: expressed in transfected cells
# Assay: NPY4 cAMP HTRF Agonist Assay (inhibitory cAMP assay, Gi activation by Y4 agonism)
# Type: cell-based
# Outline: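 Y4 agonism read as lowered forskolin-stimulated cAMP (HTRF, 1 h detection at room temperature). Stable human Y4 CHO clone, 5000 cells/well, incubated 30 min at room temperature with compounds plus forskolin and IBMX in PBS.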
# [1] = TABLE 3, R2 is Phenyl-NO2, read-out: hY4 CAMP EC50
# [2] = human Y4 receptor, cAMP, read-out: hY4 CAMP EC50
# [3] = human Y4 stable CHO clonal cells, forskolin + IBMX, read-out: NPY4 cAMP HTRF Agonist Assay EC50
# [4] = second TABLE 1, R2 is Phenyl-CF3, read-out: hY4 CAMP EC50
# [5] = TABLE 5, R2 is Pyridinyl-CF3, read-out: hY4 CAMP EC50
# [6] = TABLE 2, R2 is Phenyl-CN, read-out: hY4 CAMP EC50
# T1 sequence (P50391 whole entry): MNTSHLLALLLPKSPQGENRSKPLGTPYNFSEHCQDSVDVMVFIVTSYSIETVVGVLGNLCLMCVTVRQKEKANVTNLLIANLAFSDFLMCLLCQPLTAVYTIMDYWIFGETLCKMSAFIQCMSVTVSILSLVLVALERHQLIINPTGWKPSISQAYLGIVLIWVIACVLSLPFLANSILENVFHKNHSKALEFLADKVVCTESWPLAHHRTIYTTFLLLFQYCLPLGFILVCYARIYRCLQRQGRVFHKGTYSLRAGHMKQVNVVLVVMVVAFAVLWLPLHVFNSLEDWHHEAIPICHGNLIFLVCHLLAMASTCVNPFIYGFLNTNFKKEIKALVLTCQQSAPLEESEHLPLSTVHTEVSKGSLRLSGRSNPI
structure (smiles),measurement,setting,value
O=[N+]([O-])c1ccc(N2C[C@@H]3C[C@H](N[C@@H]4CCCC[C@H]4Nc4cc(Cl)ncn4)[C@H]2C3)cc1 [Example 295],EC50,[1],0.122 µM
Cc1nnc(-c2ccc(N3CCC[C@H](N[C@@H]4CCCC[C@H]4Nc4ncc(-c5ccccc5OC(F)(F)F)o4)C3)cc2)o1 [Example 348],EC50,[2],0.003 µM
"Cc1ccn(-c2ccc(N3CCC[C@H](N[C@@H]4CCCC[C@H]4Nc4ncc(-c5ccc(OC(F)(F)F)cc5)o4)C3)cc2)n1 [Example 68, (1R,2R)—N1-((S)-1-(4-(3-Methyl-1H-pyrazol-1-yl)phenyl)piperidin-3-yl)-N2-(5-(4-(trifluoromethoxy)phenyl)oxazol-2-yl)cyclohexane-1,2-diamine bis-trifluoroacetate]",EC50,[3],0.489 µM
CC(C)NC(=O)c1cccc(-c2ccnc(N[C@@H]3CCCC[C@H]3N[C@H]3CCCN(c4ccc(C(F)(F)F)cc4)C3)c2)c1 [Example 147],EC50,[4],0.02 µM
CC(C)(O)c1cccc(-c2ccnc(N[C@@H]3CCCC[C@H]3N[C@H]3CCCN(c4ccc(C(F)(F)F)cc4)C3)c2)c1 [Example 126],EC50,[4],0.048 µM
"O=[N+]([O-])c1ccc(N2C[C@@H]3C[C@H](N[C@@H]4CCCC[C@H]4Nc4ncc(-c5ccccc5)o4)[C@H]2C3)cc1 [Example 6, (1R,2R)—N1-((1R,4R,6S)-2-(4-Nitrophenyl)-2-azabicyclo[2.2.1]heptan-6-yl)-N2-(5-phenyloxazol-2-yl)cyclohexane-1,2-diamine]",EC50,[3],0.006 µM
COC(=O)Nc1cccc(-c2ccnc(N[C@@H]3CCCC[C@H]3N[C@H]3CCCN(c4ccc(-c5ncn(C)n5)cc4)C3)c2)c1 [Example 455],EC50,[2],0.002 µM
C[C@]1(N[C@@H]2CCCC[C@H]2Nc2ncc(-c3cccc(C(N)=O)c3)o2)CCCN(c2cnc(C(F)(F)F)cn2)C1 [Example 472],EC50,[2],0.009 µM
Cc1nnc(-c2ccc(N3CCCC(N[C@@H]4CCCC[C@H]4Nc4cc(-c5ccccc5F)ccn4)C3)cc2)o1 (stereo partly shown) [Example 367],EC50,[2],0.009 µM
Cc1nc(-c2ccc(N3CCC[C@H](N[C@@H]4CCCC[C@H]4Nc4cc(-c5cccc(OC(F)(F)F)c5)ccn4)C3)cc2)no1 [Example 341],EC50,[2],0.123 µM
O=C(O)c1cccc(-c2cnc(N[C@@H]3CCCC[C@H]3N[C@H]3CCCN(c4ccc(C(F)(F)F)nc4)C3)o2)c1 [Example 324],EC50,[5],0.052 µM
"Cc1ccn(-c2ccc(N3CCC[C@H](N[C@@H]4CCCC[C@H]4Nc4nccc(-c5ccccc5)n4)C3)cc2)n1 [Example 67, (1R,2R)—N1-((S)-1-(4-(3-Methyl-1H-pyrazol-1-yl)phenyl)piperidin-3-yl)-N2-(4-phenylpyrimidin-2-yl)cyclohexane-1,2-diamine bis-trifluoroacetate]",EC50,[3],0.057 µM
"N#Cc1ccc(N2CCC[C@H](N[C@@H]3CCCC[C@H]3Nc3ncc(-c4cccc(F)c4)o3)C2)cc1 [Example 35, 4-((S)-3-((1R,2R)-2-(5-(3-Fluorophenyl)oxazol-2-ylamino)cyclohexylamino)piperidin-1-yl)benzonitrile]",EC50,[3],0.042 µM
CCOC(=O)Nc1cccc(-c2cnc(N[C@@H]3CCCC[C@H]3N[C@H]3CCCN(c4ccc(C(F)(F)F)nc4)C3)o2)c1 [Example 102],EC50,[3],0.0004 µM
NC(=O)c1cccc(-c2cnc(N[C@@H]3CCCC[C@H]3N[C@H]3C[C@@H]4C[C@H]3N(c3ccc(C(F)(F)F)cn3)C4)o2)c1 [Example 326],EC50,[5],0.009 µM
N#Cc1ccc(N2CCC[C@H](N[C@@H]3CCCC[C@H]3Nc3cc4ccccc4cn3)C2)cc1 [Example 281],EC50,[6],0.152 µM
OCCC#Cc1ccnc(N[C@@H]2CCCC[C@H]2N[C@H]2CCCN(c3ccc(C(F)(F)F)cc3)C2)c1 [Example 161],EC50,[4],0.031 µM
"N#Cc1ccc(N2CCC[C@H](N[C@@H]3CCCC[C@H]3Nc3ncc(-c4ccccc4)o3)C2)cc1F [Example 48, 2-Fluoro-4-((S)-3-((1R,2R)-2-(5-phenyloxazol-2-ylamino)cyclohexylamino)piperidin-1-yl)benzonitrile bis-trifluoroacetate]",EC50,[3],0.006 µM
N#Cc1ccc(N2CCC[C@H](N[C@@H]3CCCC[C@H]3Nc3cc(-c4cccc(S(N)(=O)=O)c4)ccn3)C2)cc1 [Example 236],EC50,[6],0.04 µM
"CC(C)(C)OC(=O)/C=C/c1ccnc(N[C@@H]2CCCC[C@H]2N[C@H]2CCCN(c3ccc(C#N)cc3)C2)c1 [Example 109, (E)-tert-butyl 3-(2-(((1R,2R)-2-(((S)-1-(4-cyanophenyl)piperidin-3-yl)amino)cyclohexyl)amino)pyridin-4-yl)acrylate]",EC50,[3],0.119 µM
N#Cc1ccc(N2CCC[C@H](N[C@@H]3CCCC[C@H]3Nc3cc(-c4cc(C#N)cs4)ccn3)C2)cc1 [Example 269],EC50,[6],0.223 µM
COC(=O)c1cccc(-c2cnc(N[C@@H]3CCCC[C@H]3N[C@H]3CCCN(c4ccc(C(F)(F)F)cc4)C3)o2)c1 [Example 115],EC50,[4],0.067 µM
NC(=O)c1cccc(-c2cnc(N[C@@H]3CCCC[C@H]3N[C@H]3CCCN(c4cnc(C(F)(F)F)cn4)C3)o2)c1 [Example 475],EC50,[2],0.008 µM
"N#Cc1ccnc(N[C@@H]2CCCC[C@H]2N[C@H]2CCCN(c3ccc(C(F)(F)F)cc3)C2)c1 [Example 114, 2-(((1R,2R)-2-(((S)-1-(4-(trifluoromethyl)phenyl)piperidin-3-yl)amino)cyclohexyl)amino)isonicotinonitrile, bis trifluoroacetic acid salt]",EC50,[3],0.07 µM
"N#Cc1cnc(N[C@@H]2CCCC[C@H]2N[C@H]2CCCN(c3ccc(C(F)(F)F)cc3)C2)o1 [Example 113, 2-(((1R,2R)-2-(((S)-1-(4-(trifluoromethyl)phenyl)piperidin-3-yl)amino)cyclohexyl)amino)oxazole-5-carbonitrile]",EC50,[3],0.091 µM
CC(C)(C)OC(=O)Nc1cccc(-c2cnc(N[C@@H]3CCCC[C@H]3N[C@H]3CCCN(c4cnc(C(F)(F)F)nc4)C3)o2)c1 [Example 410],EC50,[2],0.32 µM
CC(C)NCc1cccc(-c2ccnc(N[C@@H]3CCCC[C@H]3N[C@H]3CCCN(c4ccc(C(F)(F)F)cc4)C3)c2)c1 [Example 143],EC50,[4],0.107 µM
N#Cc1cccc(-c2ccnc(N[C@@H]3CCCC[C@H]3N[C@H]3C[C@@H]4C[C@H]3N(c3ccc([N+](=O)[O-])cc3)C4)c2)c1 [Example 293],EC50,[1],0.163 µM
FC(F)(F)Oc1ccccc1-c1cnc(N[C@@H]2CCCC[C@H]2N[C@H]2CCCN(c3ccc(C(F)(F)F)cc3)C2)o1 [Example 197],EC50,[4],0.012 µM
NC(=O)c1cccc(-c2ccnc(N[C@@H]3CCCC[C@H]3N[C@H]3CCCN(c4ccc(-n5cncn5)cc4)C3)c2)c1 [Example 512],EC50,[2],0.65 µM
N#Cc1ccc(N2CCC[C@H](N[C@@H]3CCCC[C@H]3Nc3cc(-n4cccn4)ccn3)C2)cc1 [Example 284],EC50,[6],0.176 µM
COC(=O)c1ccccc1-c1ccnc(N[C@@H]2CCCC[C@H]2N[C@H]2CCCN(c3ccc(C#N)cc3)C2)c1 [Example 203],EC50,[6],0.211 µM
"CC(C)(C)C(=O)OCc1ccnc(N[C@@H]2CCCC[C@H]2N[C@H]2CCCN(c3ccc(C#N)cc3)C2)c1 [Example 111, (2-(((1R,2R)-2-(((S)-1-(4-cyanophenyl)piperidin-3-yl)amino)cyclohexyl)amino)pyridin-4-yl)methyl pivalate]",EC50,[3],0.562 µM
"c1ccc(-c2ccnc(N[C@@H]3CCCC[C@H]3N[C@H]3CCCN(c4ccc(-n5cncn5)cc4)C3)n2)cc1 [Example 91, (1R,2R)—N1-((S)-1-(4-(1H-1,2,4-Triazol-1-yl)phenyl)piperidin-3-yl)-N2-(4-phenylpyrimidin-2-yl)cyclohexane-1,2-diamine bis-trifluoroacetate]",EC50,[3],0.288 µM
